Data on 1 molecule can be found in patent US9045474B2, “Compounds and compositions for mitigating tissue damage and lethality” (The Regents of the University of California, priority 2010, dated 2015).

Experiment [1] in a line: Mitigation assay of analogs at +30 min and +60 min after 8 Gy IR. As to conditions: FIG. 20. How it is done: Fourteen analogs of Yel001 and Yel002, whose structures are shown in FIGS. 19A and 19B, are subject to tests in a mitigation assay at +30 min and +60 min after 8 Gy radiation (IR).
The test system of experiment [2] is C3H mice. In words: Mitigation of radiation-induced lethality in C3H mice (8Gy, LD100/30). The settings on record: 8Gy.
Method: Radiomitigation studies were conduced by pre-treating C3H mice with the compounds of interest at as concentration of 75 mg/kg and at 24 hrs and 1 hr before an 8 Gy exposure. On a 5×24 mitigation treatment protocol mice were first lethally irradiated with 8 Gy and 24 hrs later received the first subcutaneous injection with the compound suspension with subsequent injections at 48, 72, 96, and 120 hrs. The concentration of the compound in the suspension was 75 mg/kg carrier with either 1N saline or phosphate buffer solution (PBS).
C3H mice in the mitigation experiment were irradiated with 8Gy and then injected with 75 mg/kg 1 hr post exposure and then again 25 hrs post exposure.

On to `Cc1sc(NC(=O)CN(Cc2ccco2)C(=O)c2ccccc2)c(C(N)=O)c1C` [CJ010], for which the “mitigation of IR damage” value in experiment [1] is listed as “consistently mitigates the IR damage”. Besides, the “mitigation efficacy” value in experiment [2] (75 mg/kg s.c. 5×24 protocol) was “significantly mitigated IR-induced damages and death”. Further, the “survival at 30 days” value in experiment [2] (75 mg/kg s.c. at 24, 48, 72, 96, 120 hrs (5×24)) is given as 75%.
